pIC50: −log10 of the molar value.

Usually MTD stands for the largest dose that counted as tolerated.

In one series the test system is NHEK. The experiment in a line: Proliferation assay, normal human keratinocytes NHEK. In kind it is cell-based. The settings on record: 72 h culture, CyQuant proliferation assay. Here is the method: (§1) Bladder cancer cell lines (T24, RT112, HT1376 and RT4 are human bladder cancer cell lines; NHEK are normal human keratinocytes) were obtained from the European Collection of Cell Cultures (Salisbury, UK). Cells were plated at 3×10^3 per well, in flat bottomed 96-well plates in 100 μl of DMEM medium containing: 5% Fetal Clone i, […] gentamicin, 1 mM sodium pyruvate and 1% non-essential amino acids. After culturing for 24 h at 37° C. in 5% CO2, to allow cells to adhere to the plates, VDR ligands (compounds (1)-(9)) were added at concentrations ranging from 100 μM to 0.3 μM in 100 μl of above-mentioned complete medium. After a further 72 h of culture, cell proliferation was measured using a fluorescence-based proliferation assay kit. (CyQuant Cell Proliferation Assay Kit, Molecular Probes, Eugene, Oreg., USA). The IC50 was calculated from the regression curve of the titration data.

The next series relates to RT112. Put plainly: Proliferation assay, bladder cancer cell line RT112. The conditions noted are these: 72 h culture, CyQuant proliferation assay. In kind it is cell-based, human. How it is done:
as §1

In a further series the test system is HT 1376. The experiment in a line: Proliferation assay, bladder cancer cell line HT1376. In kind it is cell-based. The conditions noted are these: Homo sapiens, 72 h culture, CyQuant proliferation assay. How it is done:
as §1

A further series relates to RT4. Put plainly: Proliferation assay, bladder cancer cell line RT4. In kind it is cell-based, human. The settings on record: 72 h culture, CyQuant proliferation assay. How it is done:
as §1

The next series relates to IFN-γ production. Put plainly: IFN-γ production in the mixed leukocyte response (MLR) of allogeneic PBMC. In kind it is cell-based. The conditions noted are these: 120 h, 5 days, ELISA, read-out: INF-γ IC50. Here is the method:
Immature dendritic cells (DC) were prepared as described in Romani, N. et al. (Romani, N. et al. (1996) J. Immunol. Methyl. 196:137). IFN-γ production by allogeneic T cell activation in the mixed leukocyte response (MLR) was determined as described in Penna, G., et al., J Immunol., 164: 2405-2411 (2000).
Briefly, peripheral blood mononuclear cells (PBMC) were separated from buffy coats by Ficoll gradient and the same number (3×10^5) of allogeneic PBMC from 2 different donors were co-cultured in 96-well flat-bottom plates. The vitamin D3 compounds were added to each of the cultures. After 5 days, IFN-γ production in the MLR assay was measured by ELISA and the results expressed as amount (nM) of test compound required to induce 50% inhibition of IFN-γ production (IC50).
A general note: In an ELISA, binding on a coated surface is turned into a signal by an enzyme label.

A short description of series [1]: Determination of Maximum Tolerated Dose (MTD) in mice (serum calcium). In kind it is in vivo. The settings on record: mouse, po; female C57BL/6 mice, p.o. daily for four days; highest dose without hypercalcemia (serum calcium>10.7 mg/dl). Here is the method:
The maximum tolerated dose of the vitamin D3 compounds of the invention were determined in eight week-old female C57BL/6 mice (3 mice/group) dosed orally (0.1 ml/mouse) with various concentrations of Vitamin D3 analogs daily for four days. Analogs were formulated in miglyol for a final concentration of 0.01, 0.03, 0.1, 0.3, 1, 3, 10, 30, 100 and 300 μg/kg when given at 0.1 ml/mouse p.o. daily. Blood for serum calcium assay was drawn by tail bleed on day five, the final day of the study. Serum calcium levels were determined using a colorimetric assay (Sigma Diagnostics, procedure no. 597). The highest dose of analog tolerated without inducing hypercalcemia (serum calcium>10.7 mg/dl) was taken as the maximum tolerated dose (MTD).

A further series deals with Renin mRNA. Put plainly: Renin mRNA inhibition in murine juxtaglomerular cell line As4.1. In kind it is cell-based. The settings on record: Mus musculus, As4.1 cells treated 24 h at 10^−8, 10^−9 and 10^−10 M, real time PCR normalized to β-actin, read-out: Renin mRNA inh.As4.1/wt. Here is the method:
As4.1 cells (80% subconfluent) were treated in complete medium with compounds of the invention at 10^−8,10^−9 and 10^−10 M for 24 h. Total RNA was extracted using RNeasy Mini kit (Qiagen); treated with DNase I (Qiagen) and Reverse Transcription Reagent (Applied Biosystems) with Random Examers were used for reverse transcription according to the manufacturers' instructions. Real Time PCR analysis was performed in multiplex using commercially available β-actin VIC-conjugated probe (cat. n. 4352341E, Applied Biosystems) and custom designed mRENIN FAM-conjugated probe (Assay by Design, Applied Biosystems; Forward: […]; Reverse: […]; Probe: FAM-[…]-MGB). Reactions were performed in a 25 μL volume containing 12.5 μl […] (Applied Biosystems), 10 ng/reaction/well cDNA, and 2.5 μM each gene-specific primer. An ABI PRISM 7700 analyzer (Applied Biosystems) was used at 50° C. for 2 minutes and 95° C. for 10 minutes, followed by 40 cycles at 95° C. for 15 seconds and 60° C. for 1 minute. Cycle threshold (Ct) values were exported onto Excel worksheets for analysis. Test cDNA results were normalized versus mouse β-actin housekeeping gene. Fold differences in gene expression between the subtracted versus the unsubtracted populations were expressed using the method of 2^−ΔΔCt. (Table 4)

As to `C=C1/C(=C\C=C2/CCC[C@]3(C)C([C@H](C)CCCC(C)(C)O)CC[C@@H]23)C[C@@H](O)C[C@@H]1O` (stereo partly drawn) [1,25(OH)2D3, 1,25-dihydroxycholecalciferol, reference compound], the pIC50 is 5.35 in the series on NHEK; 4.54 in the series on RT112; 4.72 in the series on RT112 (Homo sapiens, RT-112, 72 h); 4.30 in the series with HT 1376; 4.59 with RT4; 4.35 in the series with RT4 (Homo sapiens, RT-4, 72 h). For the same compound, the pIC50 in the series with IFN-γ production is 10.30.
As to `[2H]C([2H])([2H])C(O)(CCCC1([C@H]2CCC3/C(=C/C=C4/C[C@@H](O)C[C@H](F)C4=C)CCC[C@@]32C)CC1)C([2H])([2H])[2H]` (stereo partly drawn) [Compound 5, 1α-Fluoro-25-hydroxy-20-cyclopropyl-26,27-hexadeutero-cholecalciferol], the pIC50 in the series on NHEK is 5.33; in the series on RT112 (Homo sapiens, RT-112), 4.80; with RT4 (Homo sapiens, RT-4), 5.51; in the series with IFN-γ production it was under 8.00. The MTD at 4 days in series [1] was 0.1 mg/kg.
On to `[2H]C([2H])([2H])C(O)(CCCC1(C2=CCC3/C(=C/C=C4/CC(O)C[C@H](O)C4)CCC[C@]23C)CC1)C([2H])([2H])[2H]` (stereo partly drawn) [Compound 7, 1,25-Dihydroxy-16-ene-20 cyclopropyl-26,27-hexadeutero-19-nor-cholecalciferol], for which the pIC50 with NHEK was under 5.00; in the series with RT112 (Homo sapiens, RT-112) it was under 4.52; with Renin mRNA it was 8.13; in the series with RT4 (Homo sapiens, RT-4), 5.05; with IFN-γ production it was 10.49. In series [1], the maximal tolerated dose (MTD) at 4 days is 0.001 mg/kg.
With `[2H]C([2H])([2H])C(O)(CCCC1([C@H]2CCC3/C(=C/C=C4C[C@@H](O)C[C@H](O)C4)CCC[C@@]32C)CC1)C([2H])([2H])[2H]` (stereo partly drawn) [Compound 1, 1,25-Dihydroxy-20-cyclopropyl-26,27-hexadeutero-19-nor-cholecalciferol], the pIC50 was 5.25 in the series with NHEK; under 4.52 in the series with RT112 (Homo sapiens, RT-112); 6.81 with Renin mRNA; 4.93 in the series on RT4 (Homo sapiens, RT-4); 10.29 in the series on IFN-γ production. In addition, in series [1], the maximum tolerated dose (MTD) at 4 days was 0.03 mg/kg.
`[2H]C([2H])([2H])C(O)(CCCC1([C@H]2CCC3/C(=C/C=C4/C[C@@H](OC(C)=O)C[C@H](OC(C)=O)C4=C)CCC[C@@]32C)CC1)C([2H])([2H])[2H]` (stereo partly drawn) [Compound 4, 1,3-Di-O-acetyl-1,25-dihydroxy-20-cyclopropyl-26,27-hexadeutero-cholecalciferol]: the pIC50 in the series on NHEK was 5.25; in the series with RT112 (Homo sapiens, RT-112) it was 4.73; with Renin mRNA it was 6.56; with RT4 (Homo sapiens, RT-4) it was 5.52; in the series with IFN-γ production it was 9.33. In addition, the MTD at 4 days in series [1] is 0.03 mg/kg.
As to `[2H]C([2H])([2H])C(O)(CCCC1(C2=CCC3/C(=C/C=C4/CC(O)C[C@H](O)C4=C)CCC[C@]23C)CC1)C([2H])([2H])[2H]` (stereo partly drawn) [Compound 8, 1,25-Dihydroxy-16-ene-20-cyclopropyl-26,27-hexadeutero-cholecalciferol], the pIC50 in the series with NHEK is 5.15; with RT112 (Homo sapiens, RT-112), at most 4.52; in the series with Renin mRNA, 8.31; with RT4 (Homo sapiens, RT-4), 5.62; in the series on IFN-γ production, 10.20. Besides, the MTD at 4 days in series [1] is 0.01 mg/kg.
`[2H]C([2H])([2H])C(O)(CCCC1([C@H]2CCC3/C(=C/C=C4/C[C@@H](O)C[C@H](O)C4=C)CCC[C@@]32C)CC1)C([2H])([2H])[2H]` (stereo partly drawn) [Compound 3, 1,25-Dihydroxy-20-cyclopropyl-26,27-hexadeutero-cholecalciferol]: the pIC50 in the series on NHEK was 5.18; with RT112 (Homo sapiens, RT-112), 4.71; with Renin mRNA, 7.37; in the series on RT4 (Homo sapiens, RT-4), 5.54; with IFN-γ production, 10.19. The maximum tolerated dose (MTD) at 4 days in series [1] is 0.03 mg/kg.
Take `[2H]C([2H])([2H])C(O)(CCCC1([C@H]2CCC3/C(=C/C=C4C[C@@H](OC(C)=O)C[C@H](OC(C)=O)C4)CCC[C@@]32C)CC1)C([2H])([2H])[2H]` (stereo partly drawn) [Compound 2, 1,3-Di-O-acetyl-1,25-dihydroxy-20-cyclopropyl-26,27-hexadeutero-19-nor-cholecalciferol]: the pIC50 is 5.14 in the series on NHEK; 4.79 with RT112 (Homo sapiens, RT-112); 6.99 in the series with Renin mRNA; 5.51 in the series on RT4 (Homo sapiens, RT-4); 9.41 in the series on IFN-γ production. In addition, in series [1], the MTD at 4 days was 0.03 mg/kg.
Turning to `[2H]C([2H])([2H])C(O)(CCCC1([C@H]2CCC3/C(=C/C=C4/C[C@@H](OC(C)=O)C[C@H](F)C4=C)CCC[C@@]32C)CC1)C([2H])([2H])[2H]` (stereo partly drawn) [Compound 6, 3-O-acetyl-1α-fluoro-25-hydroxy-20-cyclopropyl-cholecalciferol], the pIC50 with NHEK was 5.25; in the series with RT112 (Homo sapiens, RT-112), 4.71; in the series on Renin mRNA, 8.35; in the series with RT4 (Homo sapiens, RT-4), 5.35; with IFN-γ production, 9.13. In addition, in series [1], the MTD at 4 days was 0.03 mg/kg.
Regarding `[2H]C([2H])([2H])C(O)(CCCC1(C2=CCC3/C(=C/C=C4/CC(O)C[C@H](F)C4=C)CCC[C@]23C)CC1)C([2H])([2H])[2H]` (stereo partly drawn) [Compound 9, 1α-Fluoro-25-hydroxy-16-ene-20-cyclopropyl-26,27-hexadeutero-cholecalciferol], the pIC50 is 5.15 with NHEK; at most 4.52 with RT112 (Homo sapiens, RT-112); 7.89 in the series with Renin mRNA; 5.37 in the series with RT4 (Homo sapiens, RT-4); 9.31 in the series with IFN-γ production. For the same compound, the MTD at 4 days in series [1] is 0.01 mg/kg.

Values taken from US20090298800A1, “1,25-DIHYDROXY, 20-CYCLOPROPYL,26-27-DEUTEROALKYL VITAMIN D3 COMPOUNDS AND METHODS OF USE THEREOF” (BioXell S.p.A., priority 2005, published 2009).
